The data set deals with CCRIS mutagenicity, Ames/micronucleus/aberration tests. The data set is described as follows: CCRIS mutagenicity studies.
The mark [1] stands for this setting: Test System: AMES SALMONELLA TYPHIMURIUM, Strain/Indicator: TA98, Metabolic Activation: NONE, Method: PREINCUBATION
Where [2] appears, read: Test System: AMES SALMONELLA TYPHIMURIUM, Strain/Indicator: TA100, Metabolic Activation: NONE, Method: PREINCUBATION

Each structure is given as a SMILES string. Active and inactive are the calls of the source. No rule for the calls is given here.

Take `CC1=CC(=C(c2ccc(N)cc2)c2ccc(N)cc2)C=CC1=N`: the mutagenic call runs as follows: under setting [1], “inactive; negative”; (Test System: AMES SALMONELLA TYPHIMURIUM, Strain/Indicator: TA98, Metabolic Activation: RAT LIVER S-9, PHENOBARBITAL AND BETA-NAPHTHOFLAVONE, Method: PREINCUBATION) “inactive; negative”; under setting [2], “inactive; negative”; (Test System: AMES SALMONELLA TYPHIMURIUM, Strain/Indicator: TA100, Metabolic Activation: RAT LIVER S-9, PHENOBARBITAL AND BETA-NAPHTHOFLAVONE, Method: PREINCUBATION) “inactive; negative”; (Test System: AMES SALMONELLA TYPHIMURIUM, Strain/Indicator: TA100, Method: PREINCUBATION) “active; positive”; (Test System: AMES SALMONELLA TYPHIMURIUM, Strain/Indicator: TA1535, Metabolic Activation: NONE, Method: PREINCUBATION) “inactive; negative”. For the same molecule, the mutagenic call (Test System: AMES SALMONELLA TYPHIMURIUM, Strain/Indicator: TA1535, Metabolic Activation: RAT LIVER S-9, PHENOBARBITAL AND BETA-NAPHTHOFLAVONE, Method: PREINCUBATION) is “inactive; negative”; the mutagenic call (Test System: AMES SALMONELLA TYPHIMURIUM, Strain/Indicator: TA1537, Metabolic Activation: NONE, Method: PREINCUBATION) was “inactive; negative”; the mutagenic call (Test System: AMES SALMONELLA TYPHIMURIUM, Strain/Indicator: TA1537, Metabolic Activation: RAT LIVER S-9, PHENOBARBITAL AND BETA-NAPHTHOFLAVONE, Method: PREINCUBATION) is “inactive; negative”; the mutagenic call (Test System: AMES SALMONELLA TYPHIMURIUM, Strain/Indicator: TA1538, Metabolic Activation: NONE, Method: PREINCUBATION) was “inactive; negative”; the mutagenic call (Test System: AMES SALMONELLA TYPHIMURIUM, Strain/Indicator: TA1538, Metabolic Activation: RAT LIVER S-9, PHENOBARBITAL AND BETA-NAPHTHOFLAVONE, Method: PREINCUBATION) was “inactive; negative”; the mutagenic call (Test System: E.COLI, Strain/Indicator: WP2UVRA, Metabolic Activation: NONE, Method: PREINCUBATION) is “inactive; negative”. Moreover, the mutagenic call (Test System: E.COLI, Strain/Indicator: WP2UVRA, Metabolic Activation: RAT LIVER S-9, PHENOBARBITAL AND BETA-NAPHTHOFLAVONE, Method: PREINCUBATION) was “inactive; negative”.
`c1cc2sncc2cc1OCC1CO1` (centres undefined): the mutagenic call (Test System: AMES SALMONELLA TYPHIMURIUM, Strain/Indicator: TA100, Metabolic Activation: S-9, Method: STANDARD PLATE) is “active; positive”.
As for `CN(Cc1ccc(F)cc1)N=O`, the mutagenic call (Test System: AMES SALMONELLA TYPHIMURIUM, Strain/Indicator: TA1535, Metabolic Activation: HAMSTER, LIVER, S-9, AROCLOR 1254, Method: STANDARD PLATE) was “active; positive” and the mutagenic call (Test System: AMES SALMONELLA TYPHIMURIUM, Strain/Indicator: TA1535, Metabolic Activation: NONE, Method: STANDARD PLATE) is “inactive; negative”.
Take `C1CS1`: the mutagenic call was “inactive; negative” (Test System: AMES SALMONELLA TYPHIMURIUM, Strain/Indicator: TA98, Metabolic Activation: HAMSTER, LIVER, S-9, AROCLOR 1254, Method: PREINCUBATION); “inactive; negative” under setting [1]; “inactive; negative” (Test System: AMES SALMONELLA TYPHIMURIUM, Strain/Indicator: TA98, Metabolic Activation: RAT, LIVER, S-9, AROCLOR 1254, Method: PREINCUBATION); “active; positive” (Test System: AMES SALMONELLA TYPHIMURIUM, Strain/Indicator: TA100, Metabolic Activation: HAMSTER, LIVER, S-9, AROCLOR 1254, Method: PREINCUBATION); “active; positive” under setting [2]; “active; positive” (Test System: AMES SALMONELLA TYPHIMURIUM, Strain/Indicator: TA100, Metabolic Activation: RAT, LIVER, S-9, AROCLOR 1254, Method: PREINCUBATION). For the same molecule, the mutagenic call is “active; positive. reevaluation of results: positive” (Test System: MOUSE LYMPHOMA, Strain/Indicator: L5178Y (TK+/TK-), Metabolic Activation: NONE, Method: SUSPENSION/PLATE) and “active; positive. reevaluation of results: positive” (Test System: MOUSE LYMPHOMA, Strain/Indicator: L5178Y (TK+/TK-), Metabolic Activation: RAT, LIVER, S-9, AROCLOR 1254, Method: SUSPENSION/PLATE).

Values taken from PubChem BioAssay AID1259407 (Chemical Carcinogenesis Research Information System (CCRIS), 2018).
